Laboratory results as given in PMC12024191, “Pharmacological and Molecular Docking Investigation of Leaves of Eriobotrya japonica: Antioxidant, Enzyme Inhibition, and Anti-Inflammatory Effects” (Antioxidants, 2025).
Where two headings read alike, the source gives them in different places.

Columns and labels:
[1] = Radical scavenging activity of ABTS; conditions: for EC50: isolated components (Table 4), read-out: SC50 ABTS
Protocol: According to the method reported in [49], ABTS solution (28 mM) was mixed with potassium permanganate solution (9.6 mM) in an equal ratio (v/v = 1:1) and allowed to react at room temperature in the dark for 16 h to generate the ABTS radical solution. The ABTS radical solution was then diluted with EtOH until the absorbance reached 0.70 ± 0.02 at 740 nm. The tested samples were subsequently diluted to the desired concentrations with EtOH. In a 96-well plate, the ABTS radical solution (190 μL) was mixed with the sample solution (10 μL) and was allowed to react at room temperature for 6 min in the dark. The absorbance was then measured at 740 nm using an ELISA reader. The scavenging activity was calculated using the following equation. Scavenging rate (%) = (Acontrol − Asample)/Acontrol × 100% where Acontrol was the absorbance of the control and Asample was that of the tested sample.

[2] = Radical scavenging activity of DPPH; conditions: for EC50: isolated components (Table 4), read-out: SC50 DPPH
Protocol: According to the method reported in [48], a DPPH radical solution (400 μM) was prepared in EtOH. The tested samples were diluted to the desired concentrations with EtOH. In a 96-well plate, diluted tested sample solution (100 μL) was mixed with 100 μL of the DPPH radical solution (200 μM). The mixture was allowed to react at room temperature for 30 min in the dark. After the reaction, the absorbance at 520 nm was measured using an ELISA reader (TECAN Sunrise, Männedorf, Schweiz). The scavenging activity was calculated using the following equation. Scavenging rate (%) = (Acontrol − Asample)/Acontrol × 100% where Acontrol was the absorbance of the control and Asample was that of the tested sample.

[3] = Ferric reducing antioxidant power (FRAP)
Protocol: According to the previously published methods, acetate buffer (pH 3.6), FeCl3 solution (20 mM), and 10 m TPTZ solution (prepared in 40 mM HCl) were mixed in a ratio of 10:1:1 to generate the FRAP working solution. Then, the working solution was warmed to 37 °C before being used. The diluted sample, blank, or standard solution (100 µL) was mixed with the warm-up working solution (900 µL) and incubated for 40 min in a dry bath at 37 °C. The absorbance at 593 nm was measured using an ELISA reader. The standard curve was linear from 0 to 100 mM Trolox, and the data were expressed as mM TE/g dry weight.

[4] = molecular target: T1, acetylcholinesterase (AChE) (Electrophorus electricus, UniProt O42275); test: biochemical
T1 construct: purchased Sigma-Aldrich
Protocol: The AChE inhibition was carried out based on the previous method. The sodium phosphate buffer (pH 8.0, 0.1 M, 140 μL), DTNB (10 μL), tested sample (20 μL), and AChE solution (15 μL) were mixed in a 96-well plate. After incubating at room temperature for 10 min, the absorbance was measured at 405 nm. The inhibitory effect was calculated by the following equation. Acetylcholinesterase inhibition (%) = (Acontrol − Asample)/Acontrol × 100% where Asample and Acontrol represent the absorbance values of the tested sample and control, respectively.

α-glucosidase = molecular target: T2, α-glucosidase (Saccharomyces cerevisiae, UniProt P53341); test: Enzyme inhibition assay of α-glucosidase; assay type: biochemical, S. cerevisiae
T2 construct: purchased Sigma-Aldrich
Protocol: The inhibitory activity of α-glucosidase was determined based on the previously reported method. The α-glucosidase solution was prepared with sodium phosphate buffer (pH 6.8, 0.1 M) and diluted to 1 U/mL. Subsequently, the tested sample solution (100 µL), diluted α-glucosidase solution (20 µL), and 0.53 mM p-NPG (380 µL) were mixed and incubated at 37 °C for 40 min. […] The activity was calculated by the following equation. α-Glucosidase inhibition (%) = (Acontrol − Asample)/Acontrol × 100% where Asample and Acontrol represent the absorbance values of the tested sample and control, respectively.

[5] = Radical scavenging activity of superoxide; conditions: for EC50: isolated components (Table 4), read-out: SC50 Superoxide
Protocol: According to a previously reported procedure, the superoxide radical solution was prepared in Tris-HCl buffer (16 mM, pH 8.0) containing 300 µM NBT (50 µL), 120 µM PMS (50 µL), and tested sample solution (50 µL). […] The absorbance at 560 nm was measured using an ELISA reader, and the scavenging activity was calculated by the following equation. Scavenging rate (%) = (Acontrol − Asample)/Acontrol × 100% where Acontrol was the absorbance of the control and Asample was that of the tested sample.

[6] = system: NO production of LPS-induced RAW264.7 cells; test: LPS-induced NO inhibition assay (Griess); assay type: cell-based, Murine; conditions: Mus musculus, read-out: NO inhibition IC50
Protocol: LPS-induced NO production of RAW264.7 cells was determined by Griess assay. The 100 μL quantity of cells was seeded in 96-well plates at an amount of 5 × 10^4 cells/well and incubated for 24 h. The cells were then treated with 100 ng/mL LPS with vehicle or different concentrations of the tested sample for 24 h. […] The absorbance was measured at 540 nm to calculate the NO inhibition. Sodium nitrite was used to generate a standard curve.

[7] = system: iNOS expression in LPS-stimulated RAW264.7 cells; test: Western blot analysis of iNOS expression; assay type: cell-based, Murine; conditions: compared to the LPS group (100 ng/mL LPS)
[8] = solvent extracts, concentration causing 50% free radical scavenging
[9] = isolated components (Table 4), mM Trolox equivalents per g
[10] = 100 ng/mL LPS, 24 h, RAW264.7 cells

T1 sequence (O42275 24-633): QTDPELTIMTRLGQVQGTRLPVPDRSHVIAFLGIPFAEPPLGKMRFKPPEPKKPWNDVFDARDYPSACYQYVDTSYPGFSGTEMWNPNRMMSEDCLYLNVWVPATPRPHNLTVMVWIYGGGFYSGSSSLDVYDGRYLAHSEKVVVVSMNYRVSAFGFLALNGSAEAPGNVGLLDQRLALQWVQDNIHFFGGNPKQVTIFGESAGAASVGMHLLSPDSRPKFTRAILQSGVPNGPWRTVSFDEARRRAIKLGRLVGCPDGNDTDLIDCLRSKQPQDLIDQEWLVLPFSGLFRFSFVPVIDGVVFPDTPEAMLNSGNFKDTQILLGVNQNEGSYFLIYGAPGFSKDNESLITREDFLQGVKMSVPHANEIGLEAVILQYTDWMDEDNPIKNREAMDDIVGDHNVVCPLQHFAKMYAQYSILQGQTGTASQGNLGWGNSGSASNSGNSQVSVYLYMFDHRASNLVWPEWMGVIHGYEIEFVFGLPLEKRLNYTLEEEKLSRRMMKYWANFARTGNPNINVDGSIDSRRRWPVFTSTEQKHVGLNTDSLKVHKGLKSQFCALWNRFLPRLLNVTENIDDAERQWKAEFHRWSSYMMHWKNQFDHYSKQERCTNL
T2 sequence (P53341 whole entry): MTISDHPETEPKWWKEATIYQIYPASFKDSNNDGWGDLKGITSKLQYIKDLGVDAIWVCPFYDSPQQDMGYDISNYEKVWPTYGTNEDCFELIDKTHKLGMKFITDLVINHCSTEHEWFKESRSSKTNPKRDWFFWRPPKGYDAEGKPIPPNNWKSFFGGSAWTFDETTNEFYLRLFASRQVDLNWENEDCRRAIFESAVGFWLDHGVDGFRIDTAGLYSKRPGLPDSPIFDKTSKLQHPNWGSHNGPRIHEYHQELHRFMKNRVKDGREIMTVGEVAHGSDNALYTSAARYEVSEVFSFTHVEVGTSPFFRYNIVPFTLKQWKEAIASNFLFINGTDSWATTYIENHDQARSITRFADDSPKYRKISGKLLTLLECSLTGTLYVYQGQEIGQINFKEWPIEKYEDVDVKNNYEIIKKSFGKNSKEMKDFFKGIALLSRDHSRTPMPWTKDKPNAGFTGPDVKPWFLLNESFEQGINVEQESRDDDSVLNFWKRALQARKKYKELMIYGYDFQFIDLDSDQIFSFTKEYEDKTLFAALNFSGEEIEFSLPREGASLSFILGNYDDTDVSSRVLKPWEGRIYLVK

SMILES	EC50 [1]	EC50 [2]	TE FRAP [3, 9]	IC50 ([4]; isolated components (Table 5))	EC50 [5]	IC50 [6, 10]	also measured
Cc1cc(C(C)(C)C)c(O)c(C(C)(C)C)c1 [BHT, reference compound]	25.87 ± 0.01 µM	881 ± 70.4 µM	3082.65 ± 213.69 ^B mM/g	–	–	–	SC50 ABTS [1, 8]: 29.95± 1.04 ^A μg/mL; SC50 DPPH [2, 8]: 230.05 ± 25.40 ^AB μg/mL; TE FRAP ([3]; solvent extracts (Table 2), mM Trolox equivalents per gram): 3370.27 ± 256.53 ^D mM/g
O=C(/C=C/c1ccc(O)c(O)c1)O[C@@H]1C[C@](O)(C(=O)O)C[C@@H](O)[C@H]1O [Chlorogenic acid, chlorogenic acid, reference compound]	–	–	–	320 ± 4.13 µM	–	–	IC50 ([4]; solvent extracts (Table 3)): 386 µM
C[C@H]1[C@H](C)CC[C@]2(C(=O)O)CC[C@]3(C)C(=CC[C@@H]4[C@@]5(C)C[C@@H](O)[C@H](O)C(C)(C)[C@@H]5CC[C@]43C)[C@H]12 [Corosolic acid (3), corosolic acid]	> 400 µM	> 400 µM	<1 mM/g	283 ± 17 µM	> 400 µM	–	IC50 (α-glucosidase; isolated components (Table 5), read-out: IC50 α-Glucosidase): 13.8 ± 2.11 µM
O=c1cc(-c2ccc(O)c(O)c2)oc2cc(O[C@@H]3O[C@H](CO)[C@@H](O)[C@H](O)[C@H]3O)cc(O)c12 [Cynaroside, cynaroside, reference compound]	–	–	–	–	38.3 ± 0.69 µM	–	SC50 Superoxide [5, 8]: 13.41 ± 2.56 ^A μg/mL
Oc1cc(O)c2c(c1)O[C@H](c1ccc(O)c(O)c1)[C@H](O)C2 [Epicatechin (5), epicatechin]	7.83 ± 0.34 µM	56.9 ± 0.91 µM	1694.43 ± 21.45 ^A mM/g	405 ± 26.3 µM	210 ± 9.46 µM	> 50 µM	IC50 (α-glucosidase): > 800 µM
CC1(C)CC[C@]2(C(=O)O)CC[C@]3(C)C(=CC[C@@H]4[C@@]5(C)CC[C@H](O)C(C)(C)[C@@H]5CC[C@]43C)[C@@H]2C1 [Oleanolic acid (1), oleanolic acid]	> 400 µM	> 400 µM	<1 mM/g	–	> 400 µM	–	IC50 ([6]; RAW264.7, 24 h): > 50 µM
O=c1c(O)c(-c2ccc(O)c(O)c2)oc2cc(O)cc(O)c12 [Quercetin, quercetin, reference compound]	–	–	–	–	–	17.1 ± 1.63 µM	–
C[C@@H]1O[C@@H](OC[C@H]2O[C@@H](Oc3c(-c4ccc(O)c(O)c4)oc4cc(O)cc(O)c4c3=O)[C@H](O)[C@@H](O)[C@@H]2O)[C@H](O)[C@H](O)[C@H]1O [Rutin (6), rutin]	20 ± 0.3 µM	66.3 ± 1.68 µM	1609.10 ± 25.67 ^A mM/g	452 ± 12.9 µM	6.69 ± 0.25 µM	–	IC50 ([6]; RAW264.7, 24 h): 29.5 ± 1.19 µM
CC1CCC2(C(=O)O)CCC3(C)C(=CCC4C5(C)CC(O)C(O)C(C)(C)C5CCC43C)C2C1(C)O (stereo not shown) [Tormentic acid (4), tormentic acid]	> 400 µM	> 400 µM	<1 mM/g	281 ± 8.55 µM	> 400 µM	> 50 µM	IC50 (α-glucosidase): 320 ± 26.1 µM
C[C@H]1[C@H](C)CC[C@]2(C(=O)O)CC[C@]3(C)C(=CC[C@@H]4[C@@]5(C)CC[C@H](O)C(C)(C)[C@@H]5CC[C@]43C)[C@H]12 [Ursolic acid (2), ursolic acid]	–	–	–	311 ± 7.31 µM	–	20.2 ± 1.46 µM	Inhibition of iNOS expression ([7]; 10 μM): 26.7%; Inhibition of iNOS expression ([7]; 20 μM): 68.1%
